Test results: patent US6541507B1, “Indolecarboxylic compounds for inducing/stimulating hair growth and/or retarding hair loss” (Societe L'Oreal S.A., priority 1999, dated 2003)

What was measured:
Type II 5α-reductase = target: T1, Type II 5α-reductase (Homo sapiens, UniProt P31213); assay: Inhibition of type II 5α-reductase (14C-testosterone to dihydrotestosterone, transfected COS7 cell lysate); format: biochemical
T1 construct: made in house; host or cells: COS7 cells (ATCC, CRL 1651), transient transfection with pSG5; 100,000×g pellet of the lysate
T1 sequence (P31213 1-254): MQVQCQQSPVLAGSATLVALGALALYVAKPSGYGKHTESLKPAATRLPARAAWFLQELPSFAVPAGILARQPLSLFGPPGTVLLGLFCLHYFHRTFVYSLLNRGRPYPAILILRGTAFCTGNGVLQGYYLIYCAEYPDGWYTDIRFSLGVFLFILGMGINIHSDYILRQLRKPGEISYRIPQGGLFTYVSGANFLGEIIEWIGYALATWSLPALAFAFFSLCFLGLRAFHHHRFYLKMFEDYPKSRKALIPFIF
Description: (§1) The coding sequences (complementary deoxyribonucleic acids: cDNAs) of 5α-reductase I and of 5α-reductase II were cloned into the eukaryotic expression vector pSG5 (Stratagene). The enzymes were overexpressed after transient transfection of COS7 cells (ATCC, CRL 1651). The 5α-reductase I and 5α-reductase II cDNAs were obtained by reverse transcription and polymerase chain reaction (PCR) using specific primers from human testicle total RNA (marketed by Clontech).
The primers (SEQ ID NOS.: 3 and 4) used to obtain the 5α-reductase II cDNA were:
+strand: 5′GCGATGCAGGTTCAGTG 3′,
−strand: 5′ATTGTGGGAGCTCTGCT 3′.
(§2) The 5α-reductase I cDNA obtained was inserted, by standard genetic engineering techniques, into the BamHI site of pSG5 and the 5α-reductase II cDNA obtained was inserted into the EcoRI site (see Maniatis et al., Molecular Cloning, Cold Spring Harbor, 1989). […]
(§3) The reaction mixtures were then deposited directly on a silica plate (HPTLC, 60F 254, Merck) and subjected to chromatography (solvent=10% diethyl ether, 90% dichloromethane). They were then analyzed by digital autoradiography (Digital Autoradiography, Berthold).
(§4) The inhibition of the activity of the isoenzymes was measured by calculating the percentage of dihydrotestosterone formed from ^14C-testosterone relative to an untreated control.

Type I 5α-reductase = target: T2, Type I 5α-reductase (Homo sapiens, UniProt P18405); assay: Inhibition of type I 5α-reductase (14C-testosterone to dihydrotestosterone, transfected COS7 cell lysate); format: biochemical
T2 construct: made in house; host or cells: COS7 cells (ATCC, CRL 1651), transient transfection with pSG5; 100,000×g pellet of the lysate
T2 sequence (P18405 1-259): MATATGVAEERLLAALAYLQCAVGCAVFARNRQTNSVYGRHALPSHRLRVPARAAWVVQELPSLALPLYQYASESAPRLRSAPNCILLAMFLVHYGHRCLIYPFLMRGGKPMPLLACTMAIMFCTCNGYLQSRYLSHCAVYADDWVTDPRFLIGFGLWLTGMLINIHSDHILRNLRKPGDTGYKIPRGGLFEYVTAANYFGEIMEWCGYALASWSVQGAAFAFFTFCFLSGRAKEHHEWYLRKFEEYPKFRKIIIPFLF
Description: as §1
The primers (SEQ ID NOS.: 1 and 2) used to obtain the 5α-reductase I cDNA were:
+strand: 5′[…] 3′,
−strand: 5′[…] 3′.
as §2, §3, §4

COc1cc(OC)c2cc(C(=O)O)[nH]c2c1 [4,6-dimethoxyindole-2-carboxylic acid]
IC50 (Type II 5α-reductase; 40 mM pH 5.5 citrate buffer, 1 nM 14C-testosterone, 5 mM NADPH, 50 minutes at 37° C.): > 50 µM
inhibitory effect on the 5α-reductases (type II) (Type II 5α-reductase; statement in words): no inhibitory effect
IC50 (Type I 5α-reductase; 40 mM pH 6.5 phosphate buffer, 1 nM 14C-testosterone, 5 mM NADPH, 50 minutes at 37° C.): 50 µM
inhibitory effect on the 5α-reductases (type I) (Type I 5α-reductase; statement in words): no inhibitory effect
